These are literature values, as cited in patent publication US10213389B2 (priority 2005, dated 2019).

On to “1,4:3,6-dianhydro-D-glucitol dinitrate [Isosorbide dinitrate]”, for which, under “acetone, chloroform, alcohol, ether”, the “solubility in acetone, chloroform, alcohol and ether” value is “freely soluble”. For the setting “water, described as sparingly soluble”, the solubility in water is reported as 1.0 g/900 ml.
